Assay results as given in patent US20250026743A1, “HETEROARYL-LINKED ANALOGS AS MGLU5 NEGATIVE ALLOSTERIC MODULATORS AND METHODS OF MAKING AND USING THE SAME” (Vanderbilt University, priority 2021, published 2025).
Where two headings read alike, the source gives them in different places.

Target: T1, hmGlu5 (Homo sapiens, UniProt P41594)
T1 construct: expressed in transfected cells; host or cells: HEK 293A
Experiment: mGlu5 Ca2+ flux assay in HEK 293A cells (negative allosteric modulation of glutamate EC80 response)
Type: cell-based
Conditions: for remaining activity at 30 µM: HEK293-A, read-out: hmGlu5 NAM Emin (%); for IC50: HEK 293A cells, Ca2+ flux, glutamate EC80, >10,000 = decrease without plateau, read-out: hmGlu5 NAM IC50
Description: HEK 293A cells stably expressing either rat or human mGlu5 were plated in black-walled, clear-bottomed, poly-D-lysine coated 384-well plates in 20 μL of assay medium (DMEM containing 10% dialyzed FBS, 20 mM HEPES, 100 units/mL penicillin/streptomycin plus 250 ng/mL Fungizone, and 1 mM sodium pyruvate) at a density of 20K cells/well. The cells were grown overnight at 37° C. in the presence of 5% CO2. The next day, medium was removed and the cells incubated with 20 μL of 2.3 μM Fluo-4, AM prepared as a 2.3 mM stock in DMSO and mixed in a 1:1 ratio with 10% (w/v) pluronic acid F-127 and diluted in assay buffer (Hank's balanced salt solution, 20 mM HEPES, and 2.5 mM probenecid) for 45 minutes at 37° C. Dye was removed, 20 μL of assay buffer was added, and the plate was incubated for 5 minutes at room temperature.
Ca^2+ flux was measured using the Functional Drug Screening System (FDSS7000, Hamamatsu, Japan). After establishment of a fluorescence baseline for about 3 seconds, the compounds of the present invention were added to the cells, and the response in cells was measured. 2.3 minutes later an EC20 concentration of the mGlu5 receptor agonist glutamate was added to the cells, and the response of the cells was measured for 1.9 minutes; an EC80 concentration of agonist was added and readings taken for an additional 1.7 minutes. All test compounds were dissolved and diluted to a concentration of 10 mM in 100% DMSO. Compounds were then serially diluted 1:3 in DMSO into 10 point concentration response curves, transferred to daughter plates, and further diluted into assay buffer to a 2× stock. Calcium fluorescence measures were recorded as fold over basal fluorescence; raw data was then normalized to the maximal response to glutamate. Antagonism of the agonist response of the mGlu5 receptor in the present invention was observed as a decrease in response to nearly maximal concentrations of glutamate in the presence of compound compared to the response to glutamate in the absence of compound.
The raw data file containing all time points was used as the data source in the analysis template. This was saved by the FDSS as a tab-delimited text file. Data were normalized using a static ratio function (F/F0) for each measurement of the total 360 values per well divided by each well's initial value. Data were then reduced to peak amplitudes (Max−Initial Min) using a time range that starts approximately 3 seconds prior to the glutamate EC20/EC80 addition and continues for approximately 90-120 seconds. This is sufficient time to capture the peak amplitude of the cellular calcium response. Individual amplitudes were expressed as % EMax by multiplying each amplitude by 100 and then dividing the product by the mean of the amplitudes derived from the glutamate ECMax-treated wells. IC50 values for test compounds were generated by fitting the normalized values versus the log of the test compound concentration (in mol/L) using a 4 parameter logistic equation where none of the parameters were fixed. Each of the three values collected at each concentration of test compound were weighted evenly.
For NAMs with a CRC that plateaus above 10% Glu Max, the IC50 values are reported, the compound is designated a “partial NAM” and the % Glu Max is reported. […] Compounds without measurable activity are designated as “>30,000 nM” since the top concentration of compound tested in the assay is 30 μM. […]

T1 sequence (P41594 21-1212): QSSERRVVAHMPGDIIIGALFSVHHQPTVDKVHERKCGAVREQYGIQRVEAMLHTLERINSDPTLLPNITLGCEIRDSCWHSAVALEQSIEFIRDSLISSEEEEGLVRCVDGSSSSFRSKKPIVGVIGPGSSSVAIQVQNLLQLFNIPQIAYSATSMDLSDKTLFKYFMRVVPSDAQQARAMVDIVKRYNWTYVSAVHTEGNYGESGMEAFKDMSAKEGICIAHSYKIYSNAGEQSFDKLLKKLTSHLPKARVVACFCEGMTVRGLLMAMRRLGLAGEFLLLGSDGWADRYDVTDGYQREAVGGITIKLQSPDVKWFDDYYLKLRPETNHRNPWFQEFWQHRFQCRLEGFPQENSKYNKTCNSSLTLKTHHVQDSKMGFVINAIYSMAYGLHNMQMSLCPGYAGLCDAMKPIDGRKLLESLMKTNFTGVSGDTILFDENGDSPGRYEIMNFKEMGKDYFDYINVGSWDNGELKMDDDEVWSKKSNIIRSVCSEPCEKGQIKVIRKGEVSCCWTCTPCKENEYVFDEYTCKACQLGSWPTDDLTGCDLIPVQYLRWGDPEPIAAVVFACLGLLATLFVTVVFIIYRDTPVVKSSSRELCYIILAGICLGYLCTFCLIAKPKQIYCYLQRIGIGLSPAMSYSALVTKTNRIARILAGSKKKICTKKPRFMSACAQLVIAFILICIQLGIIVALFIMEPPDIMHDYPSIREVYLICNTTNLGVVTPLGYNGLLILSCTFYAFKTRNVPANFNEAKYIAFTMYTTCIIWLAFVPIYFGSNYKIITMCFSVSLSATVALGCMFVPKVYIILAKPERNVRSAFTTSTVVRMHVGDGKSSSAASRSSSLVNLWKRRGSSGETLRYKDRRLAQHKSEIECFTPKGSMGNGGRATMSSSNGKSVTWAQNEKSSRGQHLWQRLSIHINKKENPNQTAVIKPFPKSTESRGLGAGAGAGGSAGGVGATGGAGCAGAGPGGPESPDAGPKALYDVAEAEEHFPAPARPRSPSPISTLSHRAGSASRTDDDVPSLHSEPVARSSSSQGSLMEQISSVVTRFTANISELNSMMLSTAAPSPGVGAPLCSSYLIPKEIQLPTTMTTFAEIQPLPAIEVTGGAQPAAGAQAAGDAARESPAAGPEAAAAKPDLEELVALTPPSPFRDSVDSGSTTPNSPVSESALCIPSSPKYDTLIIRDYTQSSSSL

Row | Structure (SMILES) | remaining activity at 30 µM (% Glu max at 30 μM) [%] | IC50 [nM] | remaining activity at 30 µM [%]
1 | Cc1nc(-c2noc(-c3cscn3)n2)cc(-c2cncc(F)c2)c1F [Compound 52, 3-(5,5′-difluoro-6′-methyl-[3,4′-bipyridin]-2′-yl)-5-(thiazol-4-yl)-1,2,4-oxadiazole] | 18 | > 10000 | 
2 | Cc1nc(-c2noc(C3CCOCC3)n2)cc(-c2cncc(F)c2)c1F [Compound 37, 3-(5,5′-difluoro-6′-methyl-[3,4′-bipyridin]-2′-yl)-5-(tetrahydro-2H-pyran-4-yl)-1,2,4-oxadiazole] | 54 | > 10000 | 
3 | Cc1ccc(-c2nc(-c3cc(-c4cnccc4C)c(F)c(C)n3)no2)nc1 [Compound 64, 3-(5′-fluoro-4,6′-dimethyl-[3,4′-bipyridin]-2′-yl)-5-(5-methylpyridin-2-yl)-1,2,4-oxadiazole] | 39 | > 10000 | 
4 | Fc1ccc(-c2nc(-c3cc(-c4cncc(F)c4)cc(C4CCC4)n3)no2)nc1 [Compound 39, 3-(6′-cyclobutyl-5-fluoro-[3,4′-bipyridin]-2′-yl)-5-(5-fluoropyridin-2-yl)-1,2,4-oxadiazole] | 58 | 1910 | 
5 | Cc1ccncc1-c1cc(-c2noc(-c3cc(F)ccn3)n2)ncc1F [Compound 3, 3-(5′-fluoro-4-methyl-[3,4′-bipyridin]-2′-yl)-5-(4-fluoropyridin-2-yl)-1,2,4-oxadiazole] | 2 | 744 | 
6 | Cc1nc(-c2nc(-c3ccc(F)cc3)no2)cc(-c2cncc(F)c2)c1F [Compound 46, 5-(5,5′-difluoro-6′-methyl-[3,4′-bipyridin]-2′-yl)-3-(4-fluorophenyl)-1,2,4-oxadiazole] | 3 | 677 | 
7 | Cc1ccncc1-c1cc(-c2nnc(-c3cccc(F)c3)o2)nc(C)c1F [Compound 40, 2-(5′-fluoro-4,6′-dimethyl-[3,4′-bipyridin]-2′-yl)-5-(3-fluorophenyl)-1,3,4-oxadiazole] | 2 | 705 | 
8 | COc1c(-c2cncc(F)c2)cc(-c2n[nH]c(-c3ccc(F)cc3)n2)nc1C [Compound 102, 5-fluoro-6′-(5-(4-fluorophenyl)-1H-1,2,4-triazol-3-yl)-3′-methoxy-2′-methyl-3,4′-bipyridine] | 2 | 663 | 
9 | Cc1nc(-c2noc(-c3ccc(F)cc3F)n2)cc(-c2cncc(F)c2)c1F [Compound 49, 3-(5,5′-difluoro-6′-methyl-[3,4′-bipyridin]-2′-yl)-5-(2,4-difluorophenyl)-1,2,4-oxadiazole] | 3 | 624 | 
10 | COc1c(-c2cnccc2C)cc(-c2nc(-c3ccc(F)cn3)no2)nc1C [Compound 13, 3-(5-fluoropyridin-2-yl)-5-(5′-methoxy-4,6′-dimethyl-[3,4′-bipyridin]-2′-yl)-1,2,4-oxadiazole] | 2 | 482 | 
11 | Cc1nc(-c2noc(-c3ccc(F)cn3)n2)cc(-c2cncc(C(F)(F)F)c2)c1F [Compound 33, 3-(5′-fluoro-6′-methyl-5-(trifluoromethyl)-[3,4′-bipyridin]-2′-yl)-5-(5-fluoropyridin-2-yl)-1,2,4-oxadiazole] | 9 | 1020 | 
12 | Cc1nc(-c2nnc(-c3ccc(F)cn3)o2)cc(-c2cncc(F)c2)c1F [Compound 43, 2-(5,5′-difluoro-6′-methyl-[3,4′-bipyridin]-2′-yl)-5-(5-fluoropyridin-2-yl)-1,3,4-oxadiazole] |  | 179 | 2
13 | Cc1cc(O[C@@H]2CCOC2)cc(-c2noc(-c3ccc(F)cn3)n2)n1 [Compound 112, (R)-5-(5-fluoropyridin-2-yl)-3-(6-methyl-4-((tetrahydrofuran-3-yl)oxy)pyridin-2-yl)-1,2,4-oxadiazole] | 21 | > 10000 | 

Further compounds by falling IC50, results first:

Row | remaining activity at 30 µM (% Glu max at 30 μM) [%] | IC50 [nM] | Structure (SMILES) | remaining activity at 30 µM [%]
14 | 1 | 359 | Fc1ccc(-c2nnc(-c3cc(-c4cncc(F)c4)cc(C(F)F)n3)o2)nc1 [Compound 84, 2-(6′-(difluoromethyl)-5-fluoro-[3,4′-bipyridin]-2′-yl)-5-(5-fluoropyridin-2-yl)-1,3,4-oxadiazole] | 
15 | 2 | 298 | COc1ccncc1-c1cc(-c2nnc(-c3ccc(F)cn3)o2)nc(C)c1F [Compound 73, 2-(5′-fluoro-4-methoxy-6′-methyl-[3,4′-bipyridin]-2′-yl)-5-(5-fluoropyridin-2-yl)-1,3,4-oxadiazole] | 
16 | 3 | 245 | Cc1ccnc(-c2nc(-c3cc(-c4cnccc4C)c(F)c(C)n3)no2)c1 [Compound 88, 3-(5′-fluoro-4,6′-dimethyl-[3,4′-bipyridin]-2′-yl)-5-(4-methylpyridin-2-yl)-1,2,4-oxadiazole] | 
17 | 2 | 221 | Cc1ccncc1-c1cc(-c2noc(-c3ccncc3)n2)nc(C)c1F [Compound 93, 3-(5′-fluoro-4,6′-dimethyl-[3,4′-bipyridin]-2′-yl)-5-(pyridin-4-yl)-1,2,4-oxadiazole] | 
18 | 2 | 207 | [2H]C([2H])([2H])c1cc(-c2cncc(F)c2)cc(-c2noc(-c3ccc(F)cn3)n2)n1 [Compound 35, 3-(5-fluoro-6′-(methyl-d3)-[3,4′-bipyridin]-2′-yl)-5-(5-fluoropyridin-2-yl)-1,2,4-oxadiazole] | 
19 | 3 | 192 | Cc1ccncc1-c1cc(-c2noc(-c3ccc(F)cn3)n2)ncc1F [Compound 1, 3-(5′-fluoro-4-methyl-[3,4′-bipyridin]-2′-yl)-5-(5-fluoropyridin-2-yl)-1,2,4-oxadiazole] | 
20 | 4 | 187 | Cc1ccncc1-c1cc(-c2noc(-c3ccc(F)cn3)n2)nc(C(F)F)c1 [Compound 60, 3-(6′-(difluoromethyl)-4-methyl-[3,4′-bipyridin]-2′-yl)-5-(5-fluoropyridin-2-yl)-1,2,4-oxadiazole] | 
21 | 1 | 166 | Cc1ccncc1-c1cc(-c2nc(-c3ccc(F)cn3)no2)ncc1F [Compound 4, 5-(5′-fluoro-4-methyl-[3,4′-bipyridin]-2′-yl)-3-(5-fluoropyridin-2-yl)-1,2,4-oxadiazole] | 
22 | 3 | 161 | Cc1nc(-c2noc(-c3ccc(F)cn3)n2)cc(-c2cc(F)cc(F)c2)c1F [Compound 67, 3-(4-(3,5-difluorophenyl)-5-fluoro-6-methylpyridin-2-yl)-5-(5-fluoropyridin-2-yl)-1,2,4-oxadiazole] | 
23 | 2 | 159 | Cc1nc(-c2noc(-c3ccc(F)cn3)n2)cc(-c2cnn(C(F)F)c2)c1F [Compound 7, 3-(4-(1-(difluoromethyl)-1H-pyrazol-4-yl)-5-fluoro-6-methylpyridin-2-yl)-5-(5-fluoropyridin-2-yl)-1,2,4-oxadiazole] | 
24 | 2 | 155 | Cc1ccncc1-c1cc(-c2noc(-c3cc(Cl)ccn3)n2)nc(C)c1F [Compound 91, 5-(4-chloropyridin-2-yl)-3-(5′-fluoro-4,6′-dimethyl-[3,4′-bipyridin]-2′-yl)-1,2,4-oxadiazole] | 
25 | 2 | 69 | Cc1cccc(-c2nc(-c3cc(-c4cnccc4C)c(F)c(C)n3)no2)c1 [Compound 28, 3-(5′-fluoro-4,6′-dimethyl-[3,4′-bipyridin]-2′-yl)-5-(m-tolyl)-1,2,4-oxadiazole] | 
26 | 2 | 66 | COc1cc(C#N)cc(-c2cc(-c3nnc(-c4ccc(F)cn4)o3)nc(C)c2F)c1 [Compound 109, 3-(3-fluoro-6-(5-(5-fluoropyridin-2-yl)-1,3,4-oxadiazol-2-yl)-2-methylpyridin-4-yl)-5-methoxybenzonitrile] | 
